Test results as given in PMC11945486, “TAS1R2/TAS1R3 Single-Nucleotide Polymorphisms Affect Sweet Taste Receptor Activation by Sweeteners: The SWEET Project” (Nutrients, 2025).
Where two headings read alike, the source gives them in different places. No end group written: not given here.

T1: human TAS1R2-WT/TAS1R3-G832R (Homo sapiens, UniProt Q7RTX0+Q8TE23, G832R)
T1 construct: expressed in transfected cells; host or cells: HEK293T stably expressing Gα16gust44
T1 sequence (Q8TE23 20-839): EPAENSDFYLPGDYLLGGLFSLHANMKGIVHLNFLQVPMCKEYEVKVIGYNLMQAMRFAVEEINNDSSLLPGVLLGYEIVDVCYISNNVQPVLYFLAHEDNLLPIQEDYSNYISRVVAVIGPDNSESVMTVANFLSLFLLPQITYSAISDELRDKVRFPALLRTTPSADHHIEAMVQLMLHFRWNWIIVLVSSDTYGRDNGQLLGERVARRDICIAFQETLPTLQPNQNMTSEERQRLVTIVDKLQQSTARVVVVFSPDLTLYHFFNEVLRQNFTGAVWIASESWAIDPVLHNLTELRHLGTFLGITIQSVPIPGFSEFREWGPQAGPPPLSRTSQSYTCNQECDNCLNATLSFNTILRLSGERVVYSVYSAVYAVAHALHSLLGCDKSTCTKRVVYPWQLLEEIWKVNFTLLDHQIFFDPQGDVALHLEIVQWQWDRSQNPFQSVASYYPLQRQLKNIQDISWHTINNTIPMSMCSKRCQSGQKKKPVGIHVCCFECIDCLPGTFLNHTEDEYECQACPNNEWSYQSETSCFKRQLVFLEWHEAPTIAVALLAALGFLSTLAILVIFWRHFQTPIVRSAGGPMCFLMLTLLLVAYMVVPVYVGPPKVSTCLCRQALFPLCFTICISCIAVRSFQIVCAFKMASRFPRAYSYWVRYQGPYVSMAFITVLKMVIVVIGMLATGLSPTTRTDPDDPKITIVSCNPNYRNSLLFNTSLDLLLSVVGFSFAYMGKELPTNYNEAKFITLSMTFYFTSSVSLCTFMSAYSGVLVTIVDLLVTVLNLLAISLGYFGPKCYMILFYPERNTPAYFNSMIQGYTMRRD
T1 sequence (Q7RTX0 21-852 G832R): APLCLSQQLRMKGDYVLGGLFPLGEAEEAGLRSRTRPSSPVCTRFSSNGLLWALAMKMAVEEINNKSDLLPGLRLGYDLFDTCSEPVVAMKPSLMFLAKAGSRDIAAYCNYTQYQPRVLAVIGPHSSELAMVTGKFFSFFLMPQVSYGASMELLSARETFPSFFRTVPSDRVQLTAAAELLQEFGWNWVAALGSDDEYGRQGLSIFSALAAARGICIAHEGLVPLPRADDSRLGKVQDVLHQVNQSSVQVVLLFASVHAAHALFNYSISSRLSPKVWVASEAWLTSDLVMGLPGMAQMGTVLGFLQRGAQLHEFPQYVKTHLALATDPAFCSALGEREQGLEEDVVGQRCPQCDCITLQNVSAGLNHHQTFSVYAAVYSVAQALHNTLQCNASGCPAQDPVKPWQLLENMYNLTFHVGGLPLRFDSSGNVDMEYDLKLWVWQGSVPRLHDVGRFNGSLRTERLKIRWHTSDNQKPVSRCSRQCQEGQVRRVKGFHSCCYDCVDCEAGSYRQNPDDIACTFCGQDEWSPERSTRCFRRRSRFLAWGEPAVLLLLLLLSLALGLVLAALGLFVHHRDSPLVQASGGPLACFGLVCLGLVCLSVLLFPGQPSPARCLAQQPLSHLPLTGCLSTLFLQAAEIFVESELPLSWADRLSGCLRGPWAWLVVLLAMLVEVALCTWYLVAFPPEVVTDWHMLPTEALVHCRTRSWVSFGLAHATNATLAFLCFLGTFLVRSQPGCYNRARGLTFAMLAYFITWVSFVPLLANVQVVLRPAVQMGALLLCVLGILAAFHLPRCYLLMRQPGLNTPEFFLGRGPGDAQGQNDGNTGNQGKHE

B1: thaumatin (protein)
chain: ATFEIVNRCSYTVWAAASKGDAALDAGGRQLNSGESWTINVEPGTKGGKIWARTDCYFDDSGSGICKTGDCGGLLRCKRFGRPPTTLAEFSLNQYGKDYIDISNIKGFNVPMDFSPTTRGCRGVRCAADIVGQCPAKLKAPGGGCNDACTVFQTSEYCCTTGKCGPTEYSRFFKRLCPDAFSYVLDKPTTVTCPGSSNYRVTFCPTA
modifications: Eight disulfides
notes: sweet-tasting plant protein, E957

Molecular target: T1, human TAS1R2-WT/TAS1R3-G832R
Experiment: Calcium mobilisation assay, TAS1R2-WT with TAS1R3 variant G832R
Assay type: cell-based
Conditions: for Max ΔF/F0: maximal signal amplitude
Text: The coding sequences for TAS1R2 and TAS1R3 were commercially synthesised, and the human codon was optimised for expression in human cells. The coding sequences of human TAS1R2 and TAS1R3 were subcloned and inserted into the mammalian expression vectors pcDNA6/myc-HisA and pcDNA4/myc-HisA (Invitrogen; Thermo Fisher Scientific; Illkirch, France) between the EcoRI and NotI restriction sites, generating the plasmids pcDNA6-TAS1R2 and pcDNA4-TAS1R3, respectively. To increase protein expression in mammalian cells, an upstream start codon was used, which was a sequence called MAX, corresponding to the QBI SP163 element also described in pcDNA4-HisMax (Invitrogen; Thermo Fisher Scientific; Illkirch, France). To measure the expression level of the receptor by immunohistochemistry, we used the FLAG sequence ([…]) in the C-terminal position, which encodes the FLAG tag epitope. SNP variants of TAS1R2 and TAS1R3 were constructed based on […], respectively, using site-directed mutagenesis (Genewiz; Leipzig, Germany).
The HEK293T cells were kindly provided by Jay P. Slack (Givaudan Flavors Corporation; Cincinnati, OH, USA). HEK293T cells stably transfected with Gα16gust44 [43, 67] were seeded in poly-D-lysine-coated clear-bottom black 96-well plates (0.35 × 10^5 cells/well) in high-glucose DMEM supplemented with 2 mM GlutaMAX, 10% dialysed foetal bovine serum with penicillin/streptomycin and G418 (400 μg/mL) at 37 °C and 6.3% CO2 in a humidified atmosphere as previously reported. […] As a negative control, HEK293T cells were mock-transfected with the empty expression vector. After a further 24 h of incubation, the HEK293T cells were washed with C1 buffer (130 mM NaCl, 5 mM KCl, 10 mM HEPES pH 7.4 and 2 mM CaCl2). The 96-well plates containing the cells were then stimulated with sweet-tasting compounds. […] Different concentration ranges were tested depending on the sweet compound injected. The Ca^2+ changes were expressed as fractional changes in fluorescent light intensity: ΔF/F = (F − F0)/F0, where F was the fluorescent light intensity at each point, and F0 was the value of emitted fluorescent light prior to stimulus application. To calculate dose–response relationships, the changes in fluorescence upon stimulus application were averaged, mock-subtracted and baseline-corrected. The dose–response data obtained were adjusted using a 4-parameter logistic equation. The half-maximal effective concentrations (EC50 values) and maximal signal amplitudes were calculated using SigmaPlot software (version 15.0) (Systat Software; San Jose, CA, USA).
For in vitro calcium mobilisation assay performed on hTAS1R2-SNPs, hTAS1R3-SNPs and mTAS1R3-I60T, 6 to 7 concentrations were tested for each sweet compound, plus buffer alone. All concentration–receptor combinations were measured in duplicate, and each experiment was repeated at least 4 times (8 wells/concentration). Results were expressed for each concentration as ΔF/F mean ± SEM and represented as dose–response curves.

| Molecule | R1 = Variant EC50/WT EC50 | Max ΔF/F0 | EC50 (read-out: EC50) [µM] | EC50 (brazzein) [µg/mL] |
| --- | --- | --- | --- | --- |
| OC[C@H]1O[C@H](O[C@]2(CCl)O[C@H](CCl)[C@@H](O)[C@@H]2O)[C@H](O)[C@@H](O)[C@H]1Cl [Sucralose] | 0.7 | 0.91 ± 0.02 | 81 ± 4 |  |
| O=S(=O)(O)NC1CCCCC1 [Cyclamate, cyclamate] |  |  | 998 ± 46 |  |
| C=C(C)[C@@H]1CC=C(/C=N/O)CC1 [Perillartine, perillartine] | 0.5 | 1.18 ± 0.14 | 7.2 ± 3 |  |
| C=C1C[C@@]23CC[C@H]4[C@@](C)(CCC[C@@]4(C)C(=O)O[C@@H]4O[C@H](CO)[C@@H](O)[C@H](O[C@@H]5O[C@H](CO)[C@@H](O)[C@H](O)[C@H]5O)[C@H]4O[C@@H]4O[C@H](CO)[C@@H](O)[C@H](O)[C@H]4O)[C@@H]2CC[C@]1(O[C@@H]1O[C@H](CO)[C@@H](O)[C@H](O[C@@H]2O[C@H](CO)[C@@H](O)[C@H](O)[C@H]2O)[C@H]1O[C@@H]1O[C@H](CO)[C@@H](O)[C@H](O)[C@H]1O)C3 [Rebaudioside M, rebaudioside M] | 0.6 | 1.38 ± 0.07 | 22.7 ± 3.2 |  |
| COc1ccc(CCC(=O)c2c(O)cc(O[C@@H]3O[C@H](CO)[C@@H](O)[C@H](O)[C@H]3O[C@@H]3O[C@@H](C)[C@H](O)[C@@H](O)[C@H]3O)cc2O)cc1O [NHDC, neohesperidin dihydrochalcone] | 0.6 | 1.03 ± 0.01 | 28.1 ± 12.3 |  |
| thaumatin | 0.5 | 0.76 ± 0.03 |  |  |
| CC1=CC(=O)NS(=O)(=O)O1 [Acesulfame K, acesulfame K] | 0.8 | 0.55 ± 0.03 | 468 ± 64 |  |
| brazzein (QDKCKKVYENYPVSKCQLANQCNYDCKLDKHARSGECFYDEKRNLQCICDYCEY; ends and bridges not checked; cysteine pairing not given here; UniProt P56552 1-54, looked up) [sweet-tasting protein obtained by recombinant production using the yeast Pichia pastoris] | 0.5 | 0.97 ± 0.07 |  | 52.8 ± 15.7 |
| C[C@H](CC[C@@H](O[C@@H]1O[C@H](CO[C@@H]2O[C@H](CO)[C@@H](O)[C@H](O)[C@H]2O)[C@@H](O)[C@H](O)[C@H]1O[C@@H]1O[C@H](CO)[C@@H](O)[C@H](O)[C@H]1O)C(C)(C)O)[C@H]1CC[C@@]2(C)[C@@H]3CC=C4[C@@H](CC[C@H](O[C@@H]5O[C@H](CO[C@@H]6O[C@H](CO)[C@@H](O)[C@H](O)[C@H]6O)[C@@H](O)[C@H](O)[C@H]5O)C4(C)C)[C@]3(C)[C@H](O)C[C@]12C [Mogroside V, mogroside V] | 0.6 | 1.23 ± 0.04 | 19.1 ± 1.7 |  |
| COC(=O)[C@H](Cc1ccccc1)NC(=O)[C@H](CC(=O)O)NCCC(C)(C)C [Neotame] | 0.7 | 0.88 ± 0.02 | 0.8 ± 0.07 |  |
| B1 |  |  | 5.7 ± 0.7 |  |
